Experimental data taken from patent US12239134B2, “Plant antimicrobial compositions including an emulsifier and/or ozone and methods of use” (Arizona Board of Regents on Behalf of The University of …, priority 2018, dated 2025).
Values joined by “and” are separate entries in the source; they are usually repeats but may differ in a detail not shown here. Equal entries are not always repeated.

Experiments:
[1] = system: Escherichia coli K-12 ATCC 25253; format: cell-based
Salmonella Newport = experiment: Biofilm formation on food contact surface coupons, direct plating; format: cell-based, Salmonella enterica; conditions: two-minute treatment
Procedure: A protocol based on direct plating was also evaluated for testing the biofilm formation by Salmonella or L. monocytogenes. Biofilms were formed on three different food contact surface coupons (HDPE, Buna-N rubber, and 316 stainless steel) for up to 3 days in 35 mm mini-petri dishes. Biofilms were formed using a 1:10 diluted TSB solution (10 mL) with either S. enterica or L. monocytogenes inoculum (100 μL). The diluted TSB was changed every 16-18 hours with new 1:10 diluted TSB (10 mL). Coupons were removed for sampling and enumeration of strongly attached bacteria at three different time points (Day 0, 1, and 3). The coupons were rinsed with deionized water five times to remove planktonic cells. Then the coupons were immersed in 10 mL of BPW. The coupons were sonicated for 2 minutes using different settings (Tables 11 and 12) for each organism. After sonication, the solution was serially diluted and plated on Tryptic Soy Agar (TSA). Plates were incubated at 37° C. for 24-48 hours. The colonies were counted and the colony forming units were determined for the various sonication settings, so that the appropriate setting with the most recovery could be determined. […] These settings were used in further experiments to recover the bacterial cells from coupons during sampling and enumeration (by spread plating) of the bacteria in biofilms.
The reduction in bacterial biofilm formation was also tested using a direct plating method. Biofilms were formed on six different food contact surface coupons (HDPE, Buna-N rubber, PC, PVC, and stainless steel 304 and 316) in separate 35 mm mini-petri dishes and evaluated at three different time points (Day 0, 1, and 3). Biofilms were formed using a 1:10 diluted TSB solution (10 mL) with either S. enterica or L. monocytogenes inoculum (100 μL). The coupons were also washed and treated with antimicrobial solutions containing the plant-based emulsifier and the essential oil/plant extracts at various concentrations. The diluted TSB was changed every 16-18 hours with new 1:10 diluted TSB (10 mL). The coupons were rinsed in the antimicrobial solution before adding them to the petri dishes containing the fresh, diluted TSB. After their specific time points, coupons were removed aseptically using sterile forceps from the petri dish. The coupons were rinsed by submerging in 25 mL of sterile deionized H2O and swirled five times to remove planktonic cells. After rinsing, they were placed into a new petri dish immersed in 10 mL of BPW. The coupons were sonicated for 2 minutes on ice using different settings for each organism. After sonication, the sonicated solution was serially diluted using 0.1% peptone water and spread plated on TSA in duplicate. Plates were incubated overnight at 37° C. for 24-48 hours, after which, the colonies were counted, to establish the efficacy of the antimicrobial solutions (Tables 17-25).

OO [3% hydrogen peroxide, hydrogen peroxide]
Bacterial reductions on spinach samples after sanitizer treatments [1]: 0.8-1.2 Log CFU/g and 1.0-1.3 Log CFU/g
log reduction of E. coli K-12 on spinach [1]: 0.8-1.2 log and 1.0-1.3 log

CC(C)=CCCC(C)=CC=O [Citral, citral]
Survivors of Salmonella Newport on food contact surface (Salmonella Newport; 0.5% with 0.0001% saponin microemulsion, Day 0, 304 SS): 4.32 Log CFU/mL
Survivors of Salmonella Newport on food contact surface (Salmonella Newport; 0.5% with 0.0001% saponin microemulsion, Day 0, 316 SS): 4.36 Log CFU/mL
Survivors of Salmonella Newport on food contact surface (Salmonella Newport; 0.5% with 0.0001% saponin microemulsion, Day 0, Buna N): 4.06 Log CFU/mL
Survivors of Salmonella Newport on food contact surface (Salmonella Newport; 0.5% with 0.0001% saponin microemulsion, Day 0, HDPE): 3.44 Log CFU/mL
Survivors of Salmonella Newport on food contact surface (Salmonella Newport; 0.5% with 0.0001% saponin microemulsion, Day 0, PC): 3.25 Log CFU/mL
Survivors of Salmonella Newport on food contact surface (Salmonella Newport; 0.5% with 0.0001% saponin microemulsion, Day 0, PVC): 3.49 Log CFU/mL
Survivors of Salmonella Newport on food contact surface (Salmonella Newport; 0.5% with 0.0001% saponin microemulsion, Day 1, 304 SS): 4.52 Log CFU/mL
Survivors of Salmonella Newport on food contact surface (Salmonella Newport; 0.5% with 0.0001% saponin microemulsion, Day 1, 316 SS): 4.52 Log CFU/mL
Survivors of Salmonella Newport on food contact surface (Salmonella Newport; 0.5% with 0.0001% saponin microemulsion, Day 1, Buna N): 4.34 Log CFU/mL
Survivors of Salmonella Newport on food contact surface (Salmonella Newport; 0.5% with 0.0001% saponin microemulsion, Day 1, HDPE): 4.24 Log CFU/mL
Survivors of Salmonella Newport on food contact surface (Salmonella Newport; 0.5% with 0.0001% saponin microemulsion, Day 1, PC): 4.20 Log CFU/mL
Survivors of Salmonella Newport on food contact surface (Salmonella Newport; 0.5% with 0.0001% saponin microemulsion, Day 1, PVC): 4.27 Log CFU/mL
Survivors of Salmonella Newport on food contact surface (Salmonella Newport; 0.5% with 0.0001% saponin microemulsion, Day 3, 304 SS): 4.20 Log CFU/mL
Survivors of Salmonella Newport on food contact surface (Salmonella Newport; 0.5% with 0.0001% saponin microemulsion, Day 3, 316 SS): 4.36 Log CFU/mL
Survivors of Salmonella Newport on food contact surface (Salmonella Newport; 0.5% with 0.0001% saponin microemulsion, Day 3, Buna N): 4.20 Log CFU/mL
Survivors of Salmonella Newport on food contact surface (Salmonella Newport; 0.5% with 0.0001% saponin microemulsion, Day 3, HDPE): 3.56 Log CFU/mL
Survivors of Salmonella Newport on food contact surface (Salmonella Newport; 0.5% with 0.0001% saponin microemulsion, Day 3, PC): 3.52 Log CFU/mL
Survivors of Salmonella Newport on food contact surface (Salmonella Newport; 0.5% with 0.0001% saponin microemulsion, Day 3, PVC): 4.27 Log CFU/mL
Survivors of Salmonella Newport on food contact surface (Salmonella Newport; 0.7% with 0.0001% saponin microemulsion, Day 0, 304 SS): 4.23 Log CFU/mL
Survivors of Salmonella Newport on food contact surface (Salmonella Newport; 0.7% with 0.0001% saponin microemulsion, Day 0, 316 SS): 3.59 Log CFU/mL
Survivors of Salmonella Newport on food contact surface (Salmonella Newport; 0.7% with 0.0001% saponin microemulsion, Day 0, Buna N): 4.52 Log CFU/mL
Survivors of Salmonella Newport on food contact surface (Salmonella Newport; 0.7% with 0.0001% saponin microemulsion, Day 0, HDPE): 2.71 Log CFU/mL
Survivors of Salmonella Newport on food contact surface (Salmonella Newport; 0.7% with 0.0001% saponin microemulsion, Day 0, PC): 3.59 Log CFU/mL
Survivors of Salmonella Newport on food contact surface (Salmonella Newport; 0.7% with 0.0001% saponin microemulsion, Day 0, PVC): 3.24 Log CFU/mL
Survivors of Salmonella Newport on food contact surface (Salmonella Newport; 0.7% with 0.0001% saponin microemulsion, Day 1, 304 SS): 3.36 Log CFU/mL
Survivors of Salmonella Newport on food contact surface (Salmonella Newport; 0.7% with 0.0001% saponin microemulsion, Day 1, 316 SS): 3.24 Log CFU/mL
Survivors of Salmonella Newport on food contact surface (Salmonella Newport; 0.7% with 0.0001% saponin microemulsion, Day 1, Buna N): 3.52 Log CFU/mL
Survivors of Salmonella Newport on food contact surface (Salmonella Newport; 0.7% with 0.0001% saponin microemulsion, Day 1, HDPE): <1 Log CFU/mL
Survivors of Salmonella Newport on food contact surface (Salmonella Newport; 0.7% with 0.0001% saponin microemulsion, Day 1, PC): <1 Log CFU/mL
Survivors of Salmonella Newport on food contact surface (Salmonella Newport; 0.7% with 0.0001% saponin microemulsion, Day 1, PVC): <1 Log CFU/mL
Survivors of Salmonella Newport on food contact surface (Salmonella Newport; 0.7% with 0.0001% saponin microemulsion, Day 3, 304 SS): <1 Log CFU/mL
Survivors of Salmonella Newport on food contact surface (Salmonella Newport; 0.7% with 0.0001% saponin microemulsion, Day 3, 316 SS): <1 Log CFU/mL
Survivors of Salmonella Newport on food contact surface (Salmonella Newport; 0.7% with 0.0001% saponin microemulsion, Day 3, Buna N): <1 Log CFU/mL
Survivors of Salmonella Newport on food contact surface (Salmonella Newport; 0.7% with 0.0001% saponin microemulsion, Day 3, HDPE): <1 Log CFU/mL
Survivors of Salmonella Newport on food contact surface (Salmonella Newport; 0.7% with 0.0001% saponin microemulsion, Day 3, PC): <1 Log CFU/mL
Survivors of Salmonella Newport on food contact surface (Salmonella Newport; 0.7% with 0.0001% saponin microemulsion, Day 3, PVC): <1 Log CFU/mL
Survivors of Salmonella Newport on food contact surface (Salmonella Newport; 1% with 0.0001% saponin microemulsion, Day 0, 304 SS): 3.91 Log CFU/mL
Survivors of Salmonella Newport on food contact surface (Salmonella Newport; 1% with 0.0001% saponin microemulsion, Day 0, 316 SS): 4.13 Log CFU/mL
Survivors of Salmonella Newport on food contact surface (Salmonella Newport; 1% with 0.0001% saponin microemulsion, Day 0, Buna N): 3.26 Log CFU/mL
Survivors of Salmonella Newport on food contact surface (Salmonella Newport; 1% with 0.0001% saponin microemulsion, Day 0, HDPE): 4.45 Log CFU/mL
Survivors of Salmonella Newport on food contact surface (Salmonella Newport; 1% with 0.0001% saponin microemulsion, Day 0, PC): 4.20 Log CFU/mL
Survivors of Salmonella Newport on food contact surface (Salmonella Newport; 1% with 0.0001% saponin microemulsion, Day 0, PVC): 3.89 Log CFU/mL
Survivors of Salmonella Newport on food contact surface (Salmonella Newport; 1% with 0.0001% saponin microemulsion, Day 1, 304 SS): <1 Log CFU/mL
Survivors of Salmonella Newport on food contact surface (Salmonella Newport; 1% with 0.0001% saponin microemulsion, Day 1, 316 SS): <1 Log CFU/mL
Survivors of Salmonella Newport on food contact surface (Salmonella Newport; 1% with 0.0001% saponin microemulsion, Day 1, Buna N): <1 Log CFU/mL
Survivors of Salmonella Newport on food contact surface (Salmonella Newport; 1% with 0.0001% saponin microemulsion, Day 1, HDPE): <1 Log CFU/mL
Survivors of Salmonella Newport on food contact surface (Salmonella Newport; 1% with 0.0001% saponin microemulsion, Day 1, PC): <1 Log CFU/mL
Survivors of Salmonella Newport on food contact surface (Salmonella Newport; 1% with 0.0001% saponin microemulsion, Day 1, PVC): <1 Log CFU/mL
Survivors of Salmonella Newport on food contact surface (Salmonella Newport; 1% with 0.0001% saponin microemulsion, Day 3, 304 SS): <1 Log CFU/mL
Survivors of Salmonella Newport on food contact surface (Salmonella Newport; 1% with 0.0001% saponin microemulsion, Day 3, 316 SS): <1 Log CFU/mL
Survivors of Salmonella Newport on food contact surface (Salmonella Newport; 1% with 0.0001% saponin microemulsion, Day 3, Buna N): <1 Log CFU/mL
Survivors of Salmonella Newport on food contact surface (Salmonella Newport; 1% with 0.0001% saponin microemulsion, Day 3, HDPE): <1 Log CFU/mL
Survivors of Salmonella Newport on food contact surface (Salmonella Newport; 1% with 0.0001% saponin microemulsion, Day 3, PC): <1 Log CFU/mL
Survivors of Salmonella Newport on food contact surface (Salmonella Newport; 1% with 0.0001% saponin microemulsion, Day 3, PVC): <1 Log CFU/mL
